Test results: patent US11014915B2, “Selective estrogen receptor degrader” (SUN PHARMA ADVANCED RESEARCH COMPANY LIMITED, priority 2019, dated 2021)

What was measured:
[1] = target: T1, ER-α in MCF-7 cells harboring ER wild type (Homo sapiens, UniProt P03372); experiment: ER-α degradation (SERD) assay, MCF-7 wild type; type: cell-based; conditions: for % of ER-α remaining at 1 nM / DC50: MCF-7 Wt, 4 days; for % of ER-α remaining at 1 nM: western blot, vehicle control as 100%; for DC50: read-out: ER-α degradation assay Wt IC50
T1 construct: evaluated in MCF-7 cells harboring ER wild type; endogenous in cells; host or cells: MCF-7
T1 sequence (P03372 1-595): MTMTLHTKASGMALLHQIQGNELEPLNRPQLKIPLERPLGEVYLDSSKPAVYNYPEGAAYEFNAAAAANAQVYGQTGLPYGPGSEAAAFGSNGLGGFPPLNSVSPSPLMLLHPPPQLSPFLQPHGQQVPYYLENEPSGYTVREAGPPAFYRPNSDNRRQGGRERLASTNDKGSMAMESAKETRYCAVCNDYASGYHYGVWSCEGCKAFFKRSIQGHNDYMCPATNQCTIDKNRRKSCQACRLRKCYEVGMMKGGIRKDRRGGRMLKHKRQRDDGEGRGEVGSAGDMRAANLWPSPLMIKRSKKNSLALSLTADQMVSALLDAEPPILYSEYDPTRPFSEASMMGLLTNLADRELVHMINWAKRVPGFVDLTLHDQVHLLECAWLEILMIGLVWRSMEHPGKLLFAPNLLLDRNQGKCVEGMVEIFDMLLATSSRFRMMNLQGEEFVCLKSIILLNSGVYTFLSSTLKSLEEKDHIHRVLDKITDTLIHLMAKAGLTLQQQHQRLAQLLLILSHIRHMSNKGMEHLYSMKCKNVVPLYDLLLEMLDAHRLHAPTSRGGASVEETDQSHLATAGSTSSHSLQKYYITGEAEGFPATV
Description: Selective Estrogen Receptor Degradation (SERD) Assay:
The SERD activity for the test compounds was evaluated in MCF-7 cells harboring ER wild type, and MCF-7 cells harboring mutant ER (WT/D538G and WT/Y537S). Briefly, cells were plated in phenol red free RPMI1640 medium supplemented with 5% charcoal stripped fetal bovine serum. The seeding density was 40000 cells/well for MCF-7 WT and MCF-7 D538G and 50000 cells/well MCF-7 Y537S in a 48-well plate. Following overnight incubation, the cells were treated with varying concentrations of test compounds (final concentration: 1000 nM to 0.01 nM, 0.1% DMSO) for 4 days. The cells were lysed using PBS supplemented with 1 mM EDTA, 0.5% Triton X-100, 5 mM NaF, 6 M urea, and 1× Protease inhibitor cocktail. The lysate was analyzed for ER alpha protein using western blot. For the western blot, the cell lysate (12.5-40 μg total protein) was resolved on a 10% SDS PAGE and transferred onto a PVDF membrane. The blots were blocked using 5% skim milk powder in 0.1% PBS-T for 1 hour at room temperature, followed by co-incubation with rabbit anti-human β-actin antibody and rabbit anti-human ERα antibody for 2 hours at room temperature. The blots were subsequently probed with anti-rabbit IgG-HRP conjugate as secondary antibody for 1 hour at room temperature. The blots were developed by using West Pico Super Signal Chemiluminescence substrate and the bands were processed for densitometry analysis using Image Lab software (BioRad version 6.0.0). ERα band intensity was normalized to that housekeeping protein for respective samples. The % ER remaining was calculated by normalizing against the vehicle control (as 100%).

[2] = Pharmacokinetic study in female SD rats, single oral dose; type: in vivo; conditions: rat, 50 mg/kg p.o.; for AUC(0-t) / Cmax / Tmax / half-life / AUC(0-inf): female, SD, plasma, po; for AUC(0-inf): read-out: AUCinf_obs
Source text: In drug discovery it is very important to have good oral bioavailability and pharmacokinetic (PK) profile of the compound in order to become a good drug candidate for oral administration. Many compounds having potent in vitro efficacy fail to show therapeutic efficacy in human body. The lack of therapeutic efficacy of these compounds is mainly due to their inappropriate pharmacokinetic properties, such as low bioavailability, short half-life, rapid metabolism, or rapid clearance resulting in a short duration of action. Therefore a good drug candidate should have not only good potency, but also a good pharmacokinetic profile. The pharmacokinetic profile of the compounds of Formula Ia and Ib were determined as per the procedure provided below.
PK profiles were evaluated in female SD rats (n=2) following a single oral dose administration. Rats were fasted for 12-13 hours prior to dosing and feed was provided 2 hours after oral treatments. Dose formulations of compounds were prepared in Tween 80 (0.4% v/v of the total volume of suspension) in 0.5% carboxymethyl cellulose (CMC). Treatments were given at 50 mg/kg, p.o. To evaluate the plasma concentration, 0.2 mL blood was drawn from the rats through the retro-orbital plexus at 0.25, 1, 4, 8, 24, 48 and 72 hour time points post-treatment in Eppendorf tubes containing sodium heparin as an anticoagulant (100 IU/mL), and centrifuged immediately at 8500 rpm for 7 min at 4° C. Plasma was separated and stored at −70° C., until analysis. The analysis of samples was performed as per the method given below:
Working Calibration Standard and Quality Control Standards Preparation:
Working calibration standards were prepared having 0.10, 0.20, 2.00, 4.00, 8.00, 12.00, 16.00, and 20.00 μg/mL concentrations. Quality control standards were prepared at concentrations of […].
Preparation of Working Internal Standards (WIS):
Accurately weighed 5 mg of Carbamazepine was transferred into a 100 mL volumetric flask, dissolved and diluted up to the mark with diluent (0.1% formic acid in water:acetonitrile 30:70 v/v). A WIS of 5 μg/mL was prepared from the above solution.
5 μL of working standards and quality controls were spiked into 95 μL of blank plasma. 25 μl from the above spiked standards and quality controls were aliquoted into microcentrifuge tubes. 25 μL of study samples were also aliquoted into a micro centrifuge tube. 5 μL of WIS was added in zero standards to linearity and study samples except blank. The samples were further vortexed for 10-15 seconds. 150 μL of Milli Q water was added to all prepared samples and vortexed for 10-15 seconds. Samples were loaded on a preconditioned cartridge (preconditioning was done with 1 mL methanol followed by 1 mL Milli Q water). Cartridges were washed with 2×1 mL of Milli Q water. Elution was done with a 1 mL elution solution {acetonitrile: 0.1% formic acid solution (70:30)} in HPLC vials.
Chromatographic separation was achieved on Chiral pack ID (250*4.6 mm, 5μ) with a flow rate of 1.25 mL/min with splitter and injection volume of 20 μL. The sample cooler was maintained at 10° C. The column oven temperature was set to 30° C. The mobile phase consisted of:
Mobile phase A: 1.47 g of ammonium bicarbonate into 1 L of water, 1 ml DEA, pH 9.2±0.1
Mobile phase B: methanol,
wherein mobile phase A was mixed with mobile phase B in the ratio of 30:70 v/v, respectively. The retention time of the compound of Formula Ia, compound of Formula Ib and the internal standard were about 8.7, 7.6 and 4.2 min, respectively. The overall chromatographic run time was 16 minutes.
Detection was performed by tandem mass spectrometry (TSQ Quantum, Discovery MAX, Thermo Electron Corporation) and peak areas were integrated using LCquan software version 2.9 QF1. […]

Compound	% of ER-α remaining at 1 nM [1]	DC50 [1]	Potency of Formula Ia relative to Formula Ib in ER-α degradation ([1]; wild type)	AUC(0-t) [2]	Cmax [2]	Tmax [2]	half-life [2]	AUC(0-inf) [2]	AUClast of Formula Ia relative to Formula Ib [2]	Cmax of Formula Ia relative to Formula Ib [2]
CC1=C(c2cc(F)cc(F)c2)[C@H](c2ccc(/C=C/CN3CC(CF)C3)cc2)Oc2cc(O)ccc21 [Formula Ia, (2S)-3-(3,5-difluorophenyl)-2-[4-[(E)-3-[3-(fluoromethyl)azetidin-1-yl]prop-1-enyl]phenyl]-4-methyl-2H-chromen-7-ol]	16.3%	0.3 nM	about 34 times	7580 ng·h/mL	343 ng/mL	4 h	26 h	9800 ng·h/mL	about 4.2 fold	about 2.9 fold
CC1=C(c2cc(F)cc(F)c2)[C@@H](c2ccc(/C=C/CN3CC(CF)C3)cc2)Oc2cc(O)ccc21 [Formula Ib, (2R)-3-(3,5-difluorophenyl)-2-[4-[(E)-3-[3-(fluoromethyl)azetidin-1-yl]prop-1-enyl]phenyl]-4-methyl-2H-chromen-7-ol]	81.5%	10.2 nM	–	1800 ng·h/mL	119 ng/mL	4 h	10 h	2360 ng·h/mL	–	–
